US9781927B2, “Microbicidal composition” (Dow Global Technologies LLC, priority 2016, dated 2017)

Key:
[1] = tested on: Pseudomonas aeruginosa ATCC 10145 and Staphylococcus aureus ATCC 6538; assay: Biocidal efficacy and synergy of glutaraldehyde and Surf. B against aerobic (facultative) bacteria (2 h kill, serial dilution enumeration); assay type: cell-based; conditions: Glut part, alone (1:0) or in combination with Surf. B, 37° C., approximately 10^7 CFU/mL, 0.85% NaCl
Experimental: (§1) Surfactants and biocides were evaluated for synergy by determining the synergy index (S.I.) of the combination. Synergy index was calculated based the concentration required to achieve a certain level of bacterial kill when the two antimicrobial compounds (A and B) alone and in combinations. The tests organisms were anaerobic sulfate-reducing bacteria (Desulfovibrio longus ATCC #51456), facultative bacteria Pseudomonas aeruginosa ATCC #10145 and Staphylococcus aureus ATCC #6538, R^2O(CH2CH(CH3)O)3(CH2CH2O)7H Surf. A R^2O(CH2CH(CH3)O)3(CH2CH2O)5H Surf. B R^2O(CH2CH(CH3)O)3(CH2CH2O)13H Surf. C where R^2 is a mixture of C8-C14 linear alkyl groups.
(§2) SI is calculated as follows: Ca/CA+Cb/CB=Synergy Index (“SI”)
(§3) Wherein: • Ca=Concentration of biocide A required to achieve a certain level of bacterial kill when used in combination with B • CA=Concentration of biocide A required to achieve a certain level of bacterial kill when used alone • Cb=Concentration of biocide B required to achieve a certain level of bacterial kill when used in combination with A • CB=Concentration of biocide B required to achieve a certain level of bacterial kill when used alone When the sum of Ca/CA and Cb/CB is greater than one, antagonism is indicated.
Sterile 0.85% NaCl solution was inoculated with approximately 10^7 CFU/mL of Pseudomonas aeruginosa ATCC 10145 and Staphylococcus aureus ATCC 6538. […]

[2] = tested on: Desulfovibrio longus ATCC 51456; assay: Biocidal efficacy and synergy of glutaraldehyde and Surf A-C against anaerobic sulfate-reducing bacteria (2 h kill, serial dilution enumeration); assay type: cell-based; conditions: Glut part, 35° C.
Experimental: as §1
Inside an anaerobic chamber (Bactron anaerobic chamber), a deoxygenated sterile salt solution (3.1183 g of NaCl, 1.3082 mg of NaHCO3, 47.70 mg of KCl, 72.00 mg of CaCl2, 54.49 mg of MgSO4, 172.28 mg of Na2SO4, 43.92 mg of Na2CO3 in 1 L water) was inoculated with Desulfovibrio longus ATCC 51456 to a final bacterial concentration of 10^6 to 10^7 CFU/mL. Aliquots of this cell suspension were then treated with glutaraldehyde, and each of Surf A-C at selected active concentrations. After incubation at 35° C. for 2 hours, viable bacteria in the aliquots were enumerated using serial dilution method.
as §2, §3

Compound: O=CCCCC=O [Glut, glutaraldehyde, (1,5-pentanedial) CAS No. 111-30-8]
- Concentration (active ppm) for more than 99.999% bacterial kill in 2 hours, Glut [1]: 29.6 active ppm
- Concentration (active ppm) for complete bacterial kill in 2 hours, Glut ([2]; alone (1:0) or in combination with Surf C): 29.6 active ppm
- Concentration (active ppm) for 99.99% bacterial kill in 2 hours, Glut ([2]; alone (1:0) or in combination with Surf. A, 10^6 to 10^7 CFU/mL): 13.2 active ppm
- Concentration (active ppm) for more than 99.999% bacterial kill in 2 hours, Glut ([2]; alone (1:0) or in combination with Surf. B): 29.6 active ppm
